# Source: ChEMBL document CHEMBL1201862, “PubChem BioAssay data set” (2004)
# The source made the active and inactive calls. Cut-off read from the data, not from the text of the source: actives have a measured IC50 and inactives only a lower limit.
# Target: Envelope glycoprotein gp160 (Human immunodeficiency virus 1, UniProt Q6QLK5)
# Assay: cell-free HIV fusion peptide-binding blockers – biochemical, uHTS, fluorescence dequenching, […] (AID 1986)
# Chain of Envelope glycoprotein gp160 (Q6QLK5 whole entry, the tested form may be a part): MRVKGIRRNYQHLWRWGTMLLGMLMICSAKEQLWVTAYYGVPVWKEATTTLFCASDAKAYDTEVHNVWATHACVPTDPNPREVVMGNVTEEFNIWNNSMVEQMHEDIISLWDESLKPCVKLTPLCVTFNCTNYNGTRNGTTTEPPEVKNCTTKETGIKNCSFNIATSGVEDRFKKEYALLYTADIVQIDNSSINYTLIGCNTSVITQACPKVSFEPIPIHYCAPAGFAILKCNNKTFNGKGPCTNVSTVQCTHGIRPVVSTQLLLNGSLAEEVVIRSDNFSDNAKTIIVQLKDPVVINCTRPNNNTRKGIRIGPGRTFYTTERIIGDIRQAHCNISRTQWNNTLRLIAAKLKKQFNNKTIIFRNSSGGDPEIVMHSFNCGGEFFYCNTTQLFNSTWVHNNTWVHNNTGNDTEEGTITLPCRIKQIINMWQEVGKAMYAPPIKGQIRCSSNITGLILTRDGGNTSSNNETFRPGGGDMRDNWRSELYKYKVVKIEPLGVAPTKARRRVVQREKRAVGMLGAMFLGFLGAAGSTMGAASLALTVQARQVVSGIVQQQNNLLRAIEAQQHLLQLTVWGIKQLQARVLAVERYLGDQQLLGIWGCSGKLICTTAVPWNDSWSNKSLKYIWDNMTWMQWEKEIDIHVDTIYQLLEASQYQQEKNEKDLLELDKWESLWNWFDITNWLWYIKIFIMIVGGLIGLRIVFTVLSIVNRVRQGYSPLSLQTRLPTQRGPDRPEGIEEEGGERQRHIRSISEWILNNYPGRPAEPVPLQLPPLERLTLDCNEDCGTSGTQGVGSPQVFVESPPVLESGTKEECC
row,Compound,IC50
1,CC(C)(C)OC(=O)N1CCC(c2cc(O)n3ncc(C(=O)Nc4ccc(F)c(Cl)c4)c3n2)CC1,82.2 µM (active)
2,O=C1N/C(=N\c2ccccc2Cl)S/C1=C\c1cccc([N+](=O)[O-])c1O,22.1 µM (active)
3,Nc1c(S(=O)(=O)O)cc(NC(=O)c2ccccc2)c2c1C(=O)c1ccccc1C2=O,12.1 µM (active)
4,CCOc1cc(Br)cc(C(c2c(C(=O)O)[nH]c3ccccc23)c2c(C(=O)O)[nH]c3ccccc23)c1O,5.92 µM (active)
5,Cc1ccc(-c2nn(-c3ccccc3)cc2/C=C2\SC(=S)N(CC(=O)O)C2=O)cc1,12.3 µM (active)
